The text below walks through data of patent US8067452B2, “3-hydroxyisothiazole-4-carboxamidine derivatives as CHK2 inhibitors” (Valeant Pharmaceuticals International, priority 2007, dated 2011).

The assay deals with T1, Chk2 (Homo sapiens, UniProt O96017).
T1 construct: GST; purchased Upstate (Lake Placid, N.Y.)
T1 sequence (O96017 whole entry): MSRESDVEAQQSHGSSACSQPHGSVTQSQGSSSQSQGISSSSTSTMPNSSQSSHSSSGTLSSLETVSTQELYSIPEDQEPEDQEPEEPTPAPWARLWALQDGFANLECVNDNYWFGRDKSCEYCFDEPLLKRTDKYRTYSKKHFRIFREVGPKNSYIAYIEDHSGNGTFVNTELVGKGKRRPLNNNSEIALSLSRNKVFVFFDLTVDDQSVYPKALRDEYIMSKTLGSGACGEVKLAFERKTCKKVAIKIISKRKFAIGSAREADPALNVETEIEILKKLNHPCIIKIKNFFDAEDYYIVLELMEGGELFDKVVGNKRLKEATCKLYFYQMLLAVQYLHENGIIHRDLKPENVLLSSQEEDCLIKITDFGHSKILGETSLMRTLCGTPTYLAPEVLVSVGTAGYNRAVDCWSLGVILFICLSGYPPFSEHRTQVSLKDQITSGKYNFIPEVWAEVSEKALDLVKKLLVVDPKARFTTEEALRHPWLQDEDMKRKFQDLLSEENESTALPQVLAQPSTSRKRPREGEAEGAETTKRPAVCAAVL
In words: In vitro kinase assay with recombinant Chk2 (MBP phosphorylation, [γ-33P]ATP). The assay is classed as biochemical. To be noted: recombinant human GST-Chk2 10 nM, 25 μM MBP, 100 μM ATP, 30 min at 24° C.; read-out: The enzymatic IC50 values of compounds against Chk2. Here is the method: In vitro kinase assays with recombinant Chk1 and Chk2. Recombinant human GST-Chk1 and GST-Chk2 proteins were purchased from Upstate (Lake Placid, N.Y.). Assay conditions were based on published protocols with minor modifications. Briefly, 10 nM of Chk1 or Chk2 was used to phosphorylate 25 μM myelin basic protein (MBP) (Invitrogen, Carlsbad, Calif.) This reaction took place in a buffer that contained 8 mM MOPS, pH 7.2, 10 mM β-glycerol phosphate, 1.5 mM EGTA, 0.4 mM EDTA, 0.4 mM sodium orthovanadate, 100 μM ATP, 1 μCi [γ-^33P] ATP, 15 mM MgCl2, 0.4 mM DTT, 0.006% Brij-35, 1% glycerol and 0.2 mg/ml BSA in a final volume of 25 μl. The reaction was incubated for 30 minutes at 24° C. and was terminated by adding 100 μl of 1% trichloroacetic acid. The quenched solution was incubated for 5 min at room temperature to allow the protein to precipitate and then subsequently transferred to a 96-well white GF/B filter plate (Perkin Elmer, Wellesley, Mass.) using a Perkin Elmer Filtermate Universal Harvester. The filter plate was washed ten times with water and once with ethanol before completely drying. 40 μL of Microscint™ (Perkin Elmer, Wellesley, Mass.) was added to each well and the radioactivity that was incorporated into MBP was counted using a Perkin Elmer TopCount. The compound was titrated and its IC50 values against both Chk1 and Chk2 were determined. The reported IC50 values are the average of at least two sets of data. To determine the competitive nature of the compound with ATP, the compound concentration was varied from 0-200 nM while ATP was varied from 50-500 μM in the assays to assess the ATP effect on inhibition. Prism 4.0 software (GraphPad, San Diego Calif.) was used for the IC50 determination and Lineweaver-Burk kinetic analysis.
`CC(C)NC(=N)c1c(O)nsc1Nc1ccc(Nc2ccc(Br)cc2)cc1` [Entry 1]: the IC50 (commonly the point on the concentration scale where inhibition reaches its midpoint) is 1 to 500 nM.

With `CC(CO)NC(=N)c1c(O)nsc1Nc1ccc(Nc2ccc(Br)cc2)cc1` (stereo not shown) [Entry 2], the IC50 lay within 1 to 500 nM. In the case of `N=C(NCCO)c1c(O)nsc1Nc1ccc(Nc2ccc(Br)cc2)cc1` [Entry 3] it was 1 to 500 nM; in that of `N=C(NCC1CCCCC1)c1c(O)nsc1Nc1ccc(Nc2ccc(Br)cc2)cc1` [Entry 4], 1 to 500 nM. In the case of `N=C(NCCCCO)c1c(O)nsc1Nc1ccc(Nc2ccc(Br)cc2)cc1` [Entry 5] it was 1 to 500 nM; in that of `N=C(NCC(O)CO)c1c(O)nsc1Nc1ccc(Nc2ccc(Br)cc2)cc1` (stereo not shown) [Entry 6], 1 to 500 nM; in that of `CC(C)NC(=N)c1c(O)nsc1Nc1ccc(Nc2ccccc2)cc1` [Entry 7], 1 to 500 nM. Consider `CC(CO)NC(=N)c1c(O)nsc1Nc1ccc(Nc2ccccc2)cc1` (stereo not shown) [Entry 8], for which the concentration for half-maximal inhibition (IC50) is 1 to 500 nM. As for `N=C(NCCO)c1c(O)nsc1Nc1ccc(Nc2ccccc2)cc1` [Entry 9], the IC50 lay within 500 to 1000 nM.

On to `N=C(NCC1CCCCC1)c1c(O)nsc1Nc1ccc(Nc2ccccc2)cc1` [Entry 10], for which the half-maximal inhibitory concentration (IC50) lay within 1000 to 2000 nM. In the case of `N=C(NCCCCO)c1c(O)nsc1Nc1ccc(Nc2ccccc2)cc1` [Entry 11] it was 1000 to 2000 nM; in that of `N=C(NCC(O)CO)c1c(O)nsc1Nc1ccc(Nc2ccccc2)cc1` (stereo not shown) [Entry 12], 500 to 1000 nM; in that of `N=C(NCc1cccc2ccccc12)c1c(O)nsc1Nc1ccc(Nc2ccccc2)cc1` [Entry 13], 1 to 500 nM.
